# Columns and labels:
# human PGHS-2 = assay: PGHS-2 protein expression in LPS stimulated human monocytes; type: cell-based
# Description: The following assay describes a method for determining the inhibitory effects of compounds of Formula (I) on human PGHS-2 protein expression in LPS stimulated human monocytes.
# Method: Human peripheral blood monocytes were isolated from buffy coats by centrifugation through Ficoll and Percoll gradients. Cells were seeded at 2×10^6 /well in 24 well plates and allowed to adhere for 1 hour in RPMI supplemented with 1% human AB serum, 20 mM L-glutamine, Penicillin-Streptomycin and 10 mM HEPES. Compounds were added at various concentrations and incubated at 37° C. for 10 minutes. LPS was added at 50 ng/well (to induce enzyme expression) and incubated overnight at 37° C. The supernatant was removed and cells washed once in cold PBS. The cells were lysed in 100 μl of cold lysis buffer(50 mM Tris/HCl pH 7.5, 150 mM NaCl, 1% NP40, 0.5% sodium deoxycholate, 0.1% SDS, 300 ug/ml DNAse, 0.1% TRITON X-100, 1 mM PMSF, 1 mM leupeptin, 1 mM pepstatin). The lysate was centrifuged (10,000× g for 10 min. at 4° C.) to remove debris and the soluble fraction was subjected to SDS PAGE. analysis (12% gel). Protein separated on the gel were transferred onto nitrocellulose membrane by electrophoretic means for 2 hours at 60 volts. The membrane was pretreated for one hour in PBS/0.1% Tween 20 with 5% non-fat dry milk. After washing 3 times in PBS/Tween buffer, the membrane was incubated with a 1:2000 dilution of a monospecific antiserum to PGHS-2 or a 1:1000 dilution of an antiserum to PGHs-1 in PBS/Tween with 1% BSA for one hour with continuous shaking. The membrane was washed 3× in PBS/Tween and then incubated with a 1:3000 dilution of horseradish peroxidase conjugated donkey antiserum to rabbit Ig (Amersham) in PBS/Tween with 1% BSA for one hour with continuous shaking. The membrane was then washed 3× in PBS/Tween and the ECL immunodetection system (Amersham) was used to detect the level of expression of prostaglandin endoperoxide synthases-2.
# Interleukin-1 (IL-1) = assay: IL-1 production by LPS-stimulated human peripheral blood monocytes (IL-1 bioassay or ELISA); type: cell-based; conditions: LPS 50 ng/ml, 24 hours
# Description: The cytokine-inhibiting effects of compounds of the present invention were determined by the following in vitro assays: Interleukin -1 (IL-1) Human peripheral blood monocytes are isolated and purified from either fresh blood preparations from volunteer donors, or from blood bank buffy coats, according to the procedure of Colotta et al, J Immunol, 132, 936 (1984). These monocytes (1×10^6) are plated in 24-well plates at a concentration of 1-2 million/ml per well. The cells are allowed to adhere for 2 hours, after which time non-adherent cells are removed by gentle washing. Test compounds are then added to the cells for about 1 hour before the addition of lipopolysaccharide (50 ng/ml), and the cultures are incubated at 37° C. for an additional 24 hours. At the end of this period, culture supernatants are removed and clarified of cells and all debris. Culture supernatants are then immediately assayed for IL-1 biological activity, either by the method of Simon et al., J. Immunol. Methods, 84, 85, (1985) (based on ability of IL-1 to stimulate a Interleukin 2 producing cell line (EL-4) to secrete IL-2, in concert with A23187 ionophore) or the method of Lee et al., J. ImmunoTherapy, 6 (1), 1-12 (1990) (ELISA assay).
# [1] = tested on: Tumour Necrosis Factor (TNF); assay: TNF production by LPS-stimulated human peripheral blood monocytes (radioimmunoassay or ELISA); type: cell-based; conditions: LPS 100 ng/ml, 16-18 hours
# Interleukin-8 (IL-8) = assay: IL-8 production by primary human umbilical cord endothelial cells (HUVEC), ELISA; type: cell-based; conditions: test compound between 1 and 10 μM
# Description: Primary human umbilical cord endothelial cells (HUVEC) (Cell Systems, […], Wash.) are maintained in culture medium supplemented with 15% fetal bovine serum and 1% CS-HBGF consisting of aFGF and heparin. The cells are then diluted 20-fold before being plated (250 μl) into gelating coated 96-well plates. Prior to use, culture medium are replaced with fresh medium (200 μl). Buffer or test compound (25 μl, at concentrations between 1 and 10 μM) is then added to each well in quadruplicate wells and the plates incubated for 6h in a humidified incubator at 37° C. in an atmosphere of 5% CO2. At the end of the incubation period, supernatant is removed and assayed for IL-8 concentration using an IL-8 ELISA kit obtained from R&D Systems (Minneapolis, Minn.). All data is presented as mean value (ng/ml) of multiple samples based on the standard curve. IC50's where appropriate are generated by non-linear regression analysis.
# CSBP2 = target: T1, CSBP2 (Homo sapiens, UniProt Q16539); assay: CSBP Kinase Assay (32P transfer to EGFR-derived peptide T669); type: biochemical
# T1 construct: made in house; host or cells: yeast
# Description: Compounds (5 ul from [6X] stock^(2)) are pre-incubated with the enzyme and peptide for 20 min on ice prior to starting the reactions with 32P/MgATP. Reactions are incubated at 30° C. for 10 min and stopped by adding 10 ul of 0.3 M phosphoric acid. 32P-labeled peptide is separated on phosphocellulose (Wattman, p81) filters by spotting 30 ul reaction mixture. Filters are washed 3 times with 75 mM phosphoric acid followed by 2 washes with H2 O, and counted for 32P.
# T1 sequence (Q16539 whole entry): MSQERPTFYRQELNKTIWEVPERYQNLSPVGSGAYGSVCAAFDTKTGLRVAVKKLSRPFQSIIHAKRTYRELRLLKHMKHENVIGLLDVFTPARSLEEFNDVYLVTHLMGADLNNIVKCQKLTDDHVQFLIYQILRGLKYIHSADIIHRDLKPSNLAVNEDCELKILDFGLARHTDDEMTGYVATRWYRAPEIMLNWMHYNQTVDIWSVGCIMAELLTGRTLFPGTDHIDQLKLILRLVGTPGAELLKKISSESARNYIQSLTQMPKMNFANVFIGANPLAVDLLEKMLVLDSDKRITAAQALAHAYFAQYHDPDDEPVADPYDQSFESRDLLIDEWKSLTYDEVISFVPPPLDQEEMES
structure (smiles),measurement,setting,value
O=C1CCN(c2ccccc2)N1 [phenidone],inhibition of LPS induced PGHS-2 protein expression,human PGHS-2; up to 10 uM,inactive
CC(Cc1ccc(O)c(O)c1)C(C)Cc1ccc(O)c(O)c1 (stereo not drawn) [NDGA],inhibition of LPS induced PGHS-2 protein expression,human PGHS-2; up to 10 uM,inactive
C[S+]([O-])c1ccc(-c2nc(-c3ccc(F)cc3)c(-c3ccncc3)[nH]2)cc1 (stereo not drawn) [4-(4-Fluorophenyl)-2-(4-methylsulfinylphenyl)-5-(4-pyridyl)imidazole],inhibition of LPS induced PGHS-2 protein expression,"human PGHS-2; LPS stimulated human monocytes, rank order potency similar to that for inhibiting cytokine production",active
"COc1nccc(-c2c(-c3ccc(F)cc3)ncn2[C@H]2CC[C@H](O)CC2)n1 [Example 2, trans-1-(4-Hydroxycyclohexyl)-4-(4-fluorophenyl)-5-[(2-methoxy)pyrimidin-4-yl]imidazole]",inhibitory activity against IL-1,Interleukin-1 (IL-1),positive inhibitory activity
same,inhibitory activity against TNF,[1],positive inhibitory activity
same,inhibitory activity against IL-8,Interleukin-8 (IL-8),positive inhibitory activity
"CCOc1nccc(-c2c(-c3ccc(F)cc3)ncn2[C@H]2CC[C@H](O)CC2)n1 [Example 9, trans-1-(4-Hydroxycyclohexyl)-4-(4-fluorophenyl)-5-[(2-ethoxy)pyrimidine-4-yl]imidazole]",IC50,CSBP2,< 50 µM
COc1ccc(C2CNC(=O)C2)cc1OC1CCCC1 (stereo not drawn) [rolipram],inhibition of LPS induced PGHS-2 protein expression,human PGHS-2; up to 10 uM,inactive
"C[S+]([O-])c1ccc(-c2nc3n(c2-c2ccncc2)CCC3)cc1 (stereo not drawn) [2-(4-Methylsulfinylphenyl)-3-(4-pyridyl)-6,7-dihydro-(5H)-pyrrolo[1,2-a]imidazole]",inhibition of LPS induced PGHS-2 protein expression,human PGHS-2; up to 10 uM,inactive
